Where a name gives a salt, the structure may show the parent alone.
Legend:
Assay type in all cases: cell-based
H1299_eGFP cells [1] = test: siNG transfection and sequential adjuvant treatment, eGFP silencing by flow cytometry; conditions: for cellular siRNA delivery promoting effect: β2 agonists, 10, 20, 40 μM, 20 h after siNGs; for adjuvant effect on siNG-mediated eGFP silencing: sequential treatment 10, 20 or 40 μM, 20 h, siNGs 2 nM siRNA
H1299_eGFP cells [2] = test: Cell viability following CAD incubation (CellTiter GLO); conditions: for concentration with significant additional cytotoxicity compared to siNGs alone: human, 20 h
Procedure: The silencing potential of siPLK1-NGs was established through evaluating the cell viability. Hereto, we applied the CellTiter GLO® assay (Promega, Belgium) according to the manufacturer's guidelines. Before initiating the assay, the culture plates and reconstituted assay buffer were placed at room temperature for 30 minutes. Next, the culture medium was replaced by 250 μL fresh cell medium and an equal volume of assay buffer was added. To induce complete cell lysis, the plates were shaken during 2 minutes and the signal was allowed to stabilize the following 10 minutes. 100 μL from each well was subsequently transferred to an opaque 96-well plate, which was measured with a GloMax® 96 Microplate Luminometer (Promega, Belgium). Three biological replicates were performed and data are expressed as the mean cell viability±SEM.
Please note that we only applied siCTRL-loaded NGs in this set of experiments. With the interest of evaluating the possible effect of our treatment on cell viability, the CellTiter GLO® assay was performed as described above. Again, three biological replicates were performed and data are expressed as the mean±SEM.

H1299_eGFP cells [3] = test: Side scatter (cellular granularity) by flow cytometry
Procedure: For silencing experiments, H1299_eGFP cells were seeded in 24 well plates at a density of 35000 cells/well and were allowed to settle overnight. Subsequently, the cells were transfected and treated with small molecular adjuvants as described previously. Note that for every siEGFP or siPLK1 condition an siCTRL sample was included to account for potential off target effects. SiNG-mediated eGFP silencing was determined by flow cytometry. […] The cells were collected, centrifuged during 5 minutes at 300 g, resuspended in 300 μL flow buffer and kept on ice until analysis. For each sample the forward and side scatter as well as the green fluorescent signal were measured for at least 5000 cells.

H1299_WT cells = test: Phospholipidosis detection with LipidTOX Red; conditions: 20 h incubation
Procedure: H1299_WT cells were seeded and allowed to settle overnight as detailed previously. Next, the cells were incubated with a mixture of a 1/1000 dilution of the LipidTOX™ red phospholipidosis detection reagent (Thermo Fisher Scientific, USA) and the desired CAD in complete cell medium. Upon 20 hour incubation, the cells were fixed with 4% PFA and stored at 4° C. covered in Vectashield antifade mounting medium containing DAPI. Imaging occurred with a LSCM and a 100× oil immersion objective. DAPI and the LipidTOX™ red phospholipidosis dye were respectively excited with the 408 nm and 561 nm laser lines and the signal intensity was determined with Image J in minimum 30 cells from 5 images per condition.

[4] = relative to the first four CADs

Compound: CCc1cc2c(cc1CC)CC(NCC(O)c1ccc(O)c3[nH]c(=O)ccc13)C2 (stereo not shown) [(57) Indacaterol maleate, Indacaterol maleate]
- cellular siRNA delivery promoting effect (H1299_eGFP cells [1]): significantly improve cellular siRNA delivery

Compound: COc1ccc(CC(C)NCC(O)c2ccc(O)c(NC=O)c2)cc1 (stereo not shown) [formoterol, formoterol fumarate hemisulfate]
- cellular siRNA delivery promoting effect (H1299_eGFP cells [1]): do not qualify as siRNA delivery enhancers

Compound: COc1ccccc1OCCNCC(O)COc1cccc2[nH]c3ccccc3c12 (stereo not shown) [(26) Carvedilol, Carvedilol]
- cytotoxicity versus sum of separate components (H1299_eGFP cells [2]; 40 μM sequential to siNG): exceed the sum of the effects from each separate component
- cytotoxicity ranking, CAD treatment alone (H1299_eGFP cells [2]; 10-40 μM, no siNG): most cytotoxic
- adjuvant effect on siNG-mediated eGFP silencing (H1299_eGFP cells [1]): significant additional silencing

Compound: CCN(CC)CCO[C@H]1CC[C@@]2(C)C(=CC[C@@H]3[C@@H]2CC[C@]2(C)C(=O)CC[C@@H]32)C1 [Compound U18666A, U18666A]
- increase in SSC signal (H1299_eGFP cells [3]; siNG transfection then 30 μM): 2 fold
- effect on siNG-mediated gene silencing (H1299_eGFP cells [1]; 30 μM): clearly improved siNG-mediated gene silencing

Compound: CC(C)(C)c1ccc(C(O)CCCN2CCC(C(O)(c3ccccc3)c3ccccc3)CC2)cc1 (stereo not shown) [(56) Terfenadine, Terfenadine]
- effect on % eGFP expression compared to siNGs alone (H1299_eGFP cells [1]; 1, 2, 3, 4 or 5 μM): significantly reduce eGFP expression
- concentration required for silencing effect (H1299_eGFP cells [1]; [4]): substantially lower concentrations were required

Compound: salbutamol hemisulfate
- cellular siRNA delivery promoting effect (H1299_eGFP cells [1]): do not qualify as siRNA delivery enhancers

Compound: CNCCC=C1c2ccccc2CCc2ccccc21.Cl [(55) Nortriptyline hydrochloride, Nortriptyline hydrochloride]
- concentration with significant additional cytotoxicity compared to siNGs alone (H1299_eGFP cells [2]): 40 µM
- adjuvant effect on siNG-mediated eGFP silencing (H1299_eGFP cells [1]): significant additional silencing

Compound: Br.COc1ccc2c(c1)[C@]13CCCC[C@@H]1[C@H](C2)N(C)CC3 [Dextromethorphan hydrobromide, monohydrate]
- LipidTOX Red phospholipid signal (H1299_WT cells): only higher doses
- concentration significantly augmenting the SSC signal (H1299_eGFP cells [3]; after siNG transfection): > 80 µM
- higher concentration required to obtain similar silencing effects (H1299_eGFP cells [1]; [4]): 10 fold
- adjuvant effect on siNG-mediated eGFP silencing (H1299_eGFP cells [1]): does not influence gene silencing

Compound: CCN(CC)CCCC(C)Nc1ccnc2cc(Cl)ccc12 (stereo not shown) [Chloroquine, chloroquine]
- adjuvant effect on siNG-mediated eGFP silencing (H1299_eGFP cells [1]): enhances gene silencing to a similar extent as the initial molecules tested
- adjuvant effect on siNG-mediated eGFP silencing (H1299_eGFP cells [1]; listed as CLQ): improves the silencing potential of the siNGs to a similar extent

Compound: OCc1cc(C(O)CNCCCCCCOCCCCc2ccccc2)ccc1O (stereo not shown) [(18) Salmeterol, Salmeterol]
- concentration with significant additional cytotoxicity compared to siNGs alone (H1299_eGFP cells [2]): ≥ 20 µM
- adjuvant effect on siNG-mediated eGFP silencing (H1299_eGFP cells [1]): significant additional silencing
- cellular siRNA delivery promoting effect (H1299_eGFP cells [1]): significantly improve cellular siRNA delivery

Compound: CCCCCCCC/C=C\CCCCCCC(O)C(=O)O (stereo not shown) [Compound 2-OHOA, 2-hydroxy oleic acid]
- effect on gene silencing in combination (H1299_eGFP cells [1]; 300 μM 2OHOA combined with 10 μM DL): additive effect

Reference: US11033572B2, “Molecular adjuvants for enhanced cytosolic delivery of active agents” (Universiteit Gent, priority 2017, dated 2021)
